Read-outs that look alike come from different tables or passages of the source.

Data set [1] can be described thus: Established and other potentially significant drug interactions with JULUCA (effect on concentration). Type of data set: in vivo, human. Particulars: based on drug interaction trials or predicted interactions; for Effect on Concentration of Dolutegravir / Effect on Concentration of Rilpivirine: concomitant drug with JULUCA.
Text: (§1) These recommendations are based on either drug interaction trials of individual components or predicted interactions due to the expected magnitude of interaction and potential for serious adverse events or loss of efficacy.
Data set [2] in a line: Drug interaction trials: effect of rilpivirine on pharmacokinetics of coadministered drugs. As to conditions: No Effect = 1.00; for AUC(0-last) of coadministered drug, geometric mean ratio with/without EDURANT: footnote c.
The conditions of data set [3]: human, in vivo.
A short description of data set [4]: Drug interaction trials: effect of coadministered drugs on pharmacokinetics of dolutegravir. It is filed as in vivo, human.
Text: as §1
The mark [5] stands for this setting: coadministered drug 2 h after dolutegravir 50 mg single dose.
Setting [6] is: simultaneous administration (fasted), dolutegravir 50 mg single dose.
[7] abbreviates: simultaneous administration (fed), dolutegravir 50 mg single dose.

As to `CC[C@H]1OC(=O)[C@H](C)[C@@H](O[C@H]2C[C@@](C)(OC)[C@@H](O)[C@H](C)O2)[C@H](C)[C@@H](O[C@@H]2O[C@H](C)C[C@H](N(C)C)[C@H]2O)[C@](C)(OC)C[C@@H](C)C(=O)[C@H](C)[C@@H](O)[C@]1(C)O` [Clarithromycin], in data set [1], the “Effect on Concentration of Dolutegravir” value was “↔Dolutegravir” and the “Effect on Concentration of Rilpivirine” value was “↑Rilpivirine”.
With `COc1ccc2c(O[C@@H]3C[C@H]4C(=O)N[C@]5(C(=O)NS(=O)(=O)C6CC6)C[C@H]5/C=C\CCCCN(C)C(=O)[C@@H]4C3)cc(-c3nc(C(C)C)cs3)nc2c1C` [Simeprevir], in data set [2], the “AUC of coadministered drug, geometric mean ratio with/without EDURANT” value was 1.06; the “Cmax of coadministered drug, geometric mean ratio with/without EDURANT” value (“Cmax … geometric mean ratio with/without EDURANT” for short) was 1.10; the “Cmin of coadministered drug, geometric mean ratio with/without EDURANT” value (from here on “Cmin … geometric mean ratio with/without EDURANT”) is recorded as 0.96.
`COc1ccnc(C[S+]([O-])c2nc3ccc(OC(F)F)cc3[nH]2)c1OC` (centres unmarked) [Pantoprazole]: the “Effect on Concentration of Rilpivirine” value in data set [1] was “↓Rilpivirine”.
With `CCC(=O)C(CC(C)N(C)C)(c1ccccc1)c1ccccc1` (centres unmarked) [Methadone], in data set [1], the “Effect on Concentration of the concomitant drug” value (from here on “Effect … of the concomitant drug”) is on record as “↓Methadone”, the “Effect on Concentration of Dolutegravir” value is given as “↔Dolutegravir” and the “Effect on Concentration of Rilpivirine” value is listed as “↔Rilpivirine”.
Turning to `CN/C(=N/CCSCc1nc[nH]c1C)NC#N` [Cimetidine], in data set [1], the “Effect on Concentration of Dolutegravir” value was “↔Dolutegravir” and the “Effect on Concentration of Rilpivirine” value is “↓Rilpivirine”.
In the case of `CO[C@H]1/C=C/O[C@@]2(C)Oc3c(C)c(O)c4c(O)c(c(/C=N/N5CCN(C)CC5)c(O)c4c3C2=O)NC(=O)/C(C)=C\C=C\[C@H](C)[C@H](O)[C@@H](C)[C@@H](O)[C@@H](C)[C@H](OC(C)=O)[C@@H]1C` [Rifampin], the “Effect on Concentration of Rilpivirine” value in data set [1] was “↓Rilpivirine”.
In the case of `CC[C@H]1OC(=O)[C@H](C)C(=O)[C@H](C)[C@@H](O[C@@H]2O[C@H](C)C[C@H](N(C)C)[C@H]2O)[C@](C)(OC)C[C@@H](C)C(=O)[C@H](C)[C@H]2N(CCCCn3cnc(-c4cccnc4)c3)C(=O)O[C@]12C` [Telithromycin], in data set [1], the “Effect on Concentration of Dolutegravir” value is given as “↔Dolutegravir” and the “Effect on Concentration of Rilpivirine” value is recorded as “↑Rilpivirine”.
Take `CC(C)c1c(C(=O)Nc2ccc(O)cc2)c(-c2ccccc2)c(-c2ccc(F)cc2)n1CC[C@@H](O)C[C@@H](O)CC(=O)O` [4-hydroxy-atorvastatin]: in data set [2], the “AUC of coadministered drug, geometric mean ratio with/without EDURANT” value was found to be 1.23 and the “Cmax … geometric mean ratio with/without EDURANT” value was determined as 1.28.
Consider `CO[C@H]1/C=C/O[C@@]2(C)Oc3c(C)c(O)c4c(c3C2=O)C2=NC3(CCN(CC(C)C)CC3)NC2=C(NC(=O)/C(C)=C\C=C\[C@H](C)[C@H](O)[C@@H](C)[C@@H](O)[C@@H](C)[C@H](OC(C)=O)[C@@H]1C)C4=O` [Rifabutin], for which, in data set [1], the “Effect … of the concomitant drug” value was “↔Rifabutin”, the “Effect on Concentration of Dolutegravir” value is “↔Dolutegravir” and the “Effect on Concentration of Rilpivirine” value is recorded as “↓Rilpivirine”.
As for `C#C[C@]1(O)CC[C@H]2[C@@H]3CCC4=CC(=O)CC[C@@H]4[C@H]3CC[C@@]21C` [Norethindrone], the “Cmin … geometric mean ratio with/without EDURANT” value in data set [2] was 0.99. Besides, in data set [3], the “AUC of coadministered drug, geometric mean ratio with/without EDURANT” value was 0.89 and the “Cmax … geometric mean ratio with/without EDURANT” value was 0.94.
As to `CNC(=C[N+](=O)[O-])NCCSCc1ccc(CN(C)C)o1` [Ranitidine], in data set [1], the “Effect on Concentration of Dolutegravir” value is on record as “↔Dolutegravir” and the “Effect on Concentration of Rilpivirine” value is recorded as “↓Rilpivirine”.
Consider `O=C1NC(=O)C(c2ccccc2)(c2ccccc2)N1` [Phenytoin], for which the “Effect on Concentration of Rilpivirine” value in data set [1] was “↓Rilpivirine”.
As for `CCCc1nn(C)c2c(=O)[nH]c(-c3cc(S(=O)(=O)N4CCNCC4)ccc3OCC)nc12` [N-desmethyl-sildenafil], in data set [2], the “Cmax … geometric mean ratio with/without EDURANT” value is on record as 0.90 and the “AUC(0-last) of coadministered drug, geometric mean ratio with/without EDURANT” value is recorded as 0.92.
On to `NC(=O)N1c2ccccc2C=Cc2ccccc21` [Carbamazepine], for which the “Effect on Concentration of Rilpivirine” value in data set [1] is reported as “↓Rilpivirine”.
Same read-out and setting: next, `COCCCOc1ccnc(C[S+]([O-])c2nc3ccccc3[nH]2)c1C` (centres unmarked) [Rabeprazole]: “↓Rilpivirine”; `COc1ccc2nc([S@@+]([O-])Cc3ncc(C)c(OC)c3C)[nH]c2c1` [Esomeprazole]: “↓Rilpivirine”.
With `CNC(=C[N+](=O)[O-])NCCSCc1csc(CN(C)C)n1` [Nizatidine], in data set [1], the “Effect on Concentration of Dolutegravir” value is recorded as “↔Dolutegravir” and the “Effect on Concentration of Rilpivirine” value is reported as “↓Rilpivirine”.
Take Sucralfate: the “Effect on Concentration of Dolutegravir” value in data set [1] is given as “↓Dolutegravir”.
Regarding `Cc1c(OCC(F)(F)F)ccnc1C[S+]([O-])c1nc2ccccc2[nH]1` (centres unmarked) [Lansoprazole], the “Effect on Concentration of Rilpivirine” value in data set [1] is given as “↓Rilpivirine”.
In the case of `C[C@H]1O[C@@H](O[C@H]2[C@@H](O)C[C@H](O[C@H]3[C@@H](O)C[C@H](O[C@H]4CC[C@@]5(C)[C@H](CC[C@@H]6[C@@H]5C[C@@H](O)[C@]5(C)[C@@H](C7=CC(=O)OC7)CC[C@]65O)C4)O[C@@H]3C)O[C@@H]2C)C[C@H](O)[C@@H]1O` [Digoxin], in data set [2], the “Cmax … geometric mean ratio with/without EDURANT” value was found to be 1.06 and the “AUC(0-last) of coadministered drug, geometric mean ratio with/without EDURANT” value stood at 0.98.
Consider `O=C([O-])[O-].[Ca+2]` [Calcium carbonate], for which the “Dolutegravir AUC, geometric mean ratio with/without coadministered drug” value in data set [4] (setting [5]) amounted to 0.94; in data set [4] (setting [6]), 0.61; in data set [4] (setting [7]), 1.09. Besides, the “Dolutegravir Cmax, geometric mean ratio with/without coadministered drug” value in data set [4] (setting [5]) was 1.00; in data set [4] (setting [6]) it was 0.63; in data set [4] (setting [7]), 1.07. Besides, the figures for the “Dolutegravir Cτ or C24, geometric mean ratio with/without coadministered drug” value in data set [4] (setting [5]), in data set [4] (setting [6]) and in data set [4] (setting [7]) were 0.90, 0.61 and 1.08, respectively.
Turning to `C[C@@H]1C[C@H]2[C@@H]3CCC4=CC(=O)C=C[C@]4(C)[C@@]3(F)[C@@H](O)C[C@]2(C)[C@@]1(O)C(=O)CO` [Dexamethasone], the “Effect on Concentration of Rilpivirine” value in data set [1] is listed as “↓Rilpivirine”.
As for `CC[C@H]1OC(=O)[C@H](C)[C@@H](O[C@H]2C[C@@](C)(OC)[C@@H](O)[C@H](C)O2)[C@H](C)[C@@H](O[C@@H]2O[C@H](C)C[C@H](N(C)C)[C@H]2O)[C@](C)(O)C[C@@H](C)C(=O)[C@H](C)[C@@H](O)[C@]1(C)O` [Erythromycin], in data set [1], the “Effect on Concentration of Dolutegravir” value is given as “↔Dolutegravir” and the “Effect on Concentration of Rilpivirine” value is recorded as “↑Rilpivirine”.
As to `CC(C)c1c(C(=O)Nc2ccccc2O)c(-c2ccccc2)c(-c2ccc(F)cc2)n1CCC(O)CC(O)CC(=O)O` (centres unmarked) [2-hydroxy-atorvastatin], in data set [2], the “AUC of coadministered drug, geometric mean ratio with/without EDURANT” value came out at 1.39; the “Cmax … geometric mean ratio with/without EDURANT” value stood at 1.58; the “Cmin … geometric mean ratio with/without EDURANT” value was determined as 1.32.
Turning to `NC(N)=Nc1nc(CSCCC(N)=NS(N)(=O)=O)cs1` [Famotidine], in data set [1], the “Effect on Concentration of Dolutegravir” value is recorded as “↔Dolutegravir” and the “Effect on Concentration of Rilpivirine” value was “↓Rilpivirine”.
`CO[C@H]1/C=C/O[C@@]2(C)Oc3c(C)c(O)c4c(O)c(c(/C=N/N5CCN(C)CC5)c(O)c4c3C2=O)NC(=O)/C(C)=C\C=C\[C@H](C)[C@H](O)[C@@H](C)[C@@H](O)[C@@H](C)[C@H](O)[C@@H]1C` [25-desacetylrifampin]: in data set [2], the “AUC of coadministered drug, geometric mean ratio with/without EDURANT” value is listed as 0.91 and the “Cmax … geometric mean ratio with/without EDURANT” value stood at 1.00.
Regarding `O=C([O-])/C=C/C(=O)[O-].[Fe+2]` [Ferrous fumarate], in data set [4] (setting [5]), the “Dolutegravir AUC, geometric mean ratio with/without coadministered drug” value is given as 0.95; the “Dolutegravir Cmax, geometric mean ratio with/without coadministered drug” value is reported as 0.99; the “Dolutegravir Cτ or C24, geometric mean ratio with/without coadministered drug” value is on record as 0.92. Besides, in data set [4] (setting [6]), the “Dolutegravir AUC, geometric mean ratio with/without coadministered drug” value was 0.46; the “Dolutegravir Cmax, geometric mean ratio with/without coadministered drug” value is 0.43; the “Dolutegravir Cτ or C24, geometric mean ratio with/without coadministered drug” value stood at 0.44. Moreover, in data set [4] (setting [7]), the “Dolutegravir AUC, geometric mean ratio with/without coadministered drug” value worked out at 0.98; the “Dolutegravir Cmax, geometric mean ratio with/without coadministered drug” value came out at 1.03; the “Dolutegravir Cτ or C24, geometric mean ratio with/without coadministered drug” value was found to be 1.00.
Turning to `CN(CCOc1ccc(NS(C)(=O)=O)cc1)CCc1ccc(NS(C)(=O)=O)cc1` [Dofetilide], in data set [1], the “Effect … of the concomitant drug” value is given as “↑Dofetilide”.
Consider `CC(=O)N1CCN(c2ccc(OCC3COC(Cn4ccnc4)(c4ccc(Cl)cc4Cl)O3)cc2)CC1` (centres unmarked) [Ketoconazole], for which, in data set [2], the “AUC of coadministered drug, geometric mean ratio with/without EDURANT” value came out at 0.76; the “Cmax … geometric mean ratio with/without EDURANT” value was determined as 0.85; the “Cmin … geometric mean ratio with/without EDURANT” value is on record as 0.34.
With `CCC1(c2ccccc2)C(=O)NC(=O)NC1=O` [Phenobarbital], in data set [1], the “Effect on Concentration of Rilpivirine” value is reported as “↓Rilpivirine”.
Same read-out and setting: to `CO[C@H]1/C=C/O[C@@]2(C)Oc3c(C)c(O)c4c(O)c(c(/C=N/N5CCN(C6CCCC6)CC5)c(O)c4c3C2=O)NC(=O)/C(C)=C\C=C\[C@H](C)[C@H](O)[C@@H](C)[C@@H](O)[C@@H](C)[C@H](OC(C)=O)[C@@H]1C` [Rifapentine] belongs “↓Rilpivirine”; to `NC(=O)N1c2ccccc2CC(=O)c2ccccc21` [Oxcarbazepine], “↓Rilpivirine”.

The values above are taken from patent US12011506B2, “Combination and uses and treatments thereof” (priority 2017, dated 2024).
